18 compounds from patent US8470829B2 (priority 2004, dated 2013) can be followed below.

Each structure is given as a SMILES string. Where two headings read alike, the source gives them in different places.

Assay [1] concerns the target T1, human androgen receptor (Homo sapiens, UniProt P10275).
T1 construct: expressed in transfected cells
T1 sequence (P10275 1-920): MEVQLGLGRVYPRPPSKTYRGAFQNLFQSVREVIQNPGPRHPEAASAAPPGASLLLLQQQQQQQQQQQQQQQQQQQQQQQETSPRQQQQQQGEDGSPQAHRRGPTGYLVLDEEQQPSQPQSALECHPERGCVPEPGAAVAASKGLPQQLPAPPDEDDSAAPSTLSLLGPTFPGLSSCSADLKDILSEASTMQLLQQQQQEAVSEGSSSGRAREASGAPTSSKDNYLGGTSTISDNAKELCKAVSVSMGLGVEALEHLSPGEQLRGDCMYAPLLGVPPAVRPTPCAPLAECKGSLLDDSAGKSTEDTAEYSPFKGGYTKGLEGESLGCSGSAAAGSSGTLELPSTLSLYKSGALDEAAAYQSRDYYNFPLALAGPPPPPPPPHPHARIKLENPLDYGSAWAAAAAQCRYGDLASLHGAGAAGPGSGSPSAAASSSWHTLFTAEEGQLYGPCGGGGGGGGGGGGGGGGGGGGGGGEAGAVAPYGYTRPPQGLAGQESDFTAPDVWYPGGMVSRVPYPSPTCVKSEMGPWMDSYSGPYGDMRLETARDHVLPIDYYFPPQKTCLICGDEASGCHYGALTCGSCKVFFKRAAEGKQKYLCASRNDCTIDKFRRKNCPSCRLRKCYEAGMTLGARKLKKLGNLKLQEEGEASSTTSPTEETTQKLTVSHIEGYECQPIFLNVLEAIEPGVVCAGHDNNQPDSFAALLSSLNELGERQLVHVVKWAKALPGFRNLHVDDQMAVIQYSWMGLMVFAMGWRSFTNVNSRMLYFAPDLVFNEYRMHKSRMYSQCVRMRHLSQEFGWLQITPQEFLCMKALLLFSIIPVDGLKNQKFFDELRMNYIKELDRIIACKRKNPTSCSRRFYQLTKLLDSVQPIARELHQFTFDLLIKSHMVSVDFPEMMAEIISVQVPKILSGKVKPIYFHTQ
As to the kind of experiment: Measurement of agonist effect on androgen receptor (reporter gene assay, 11A11B2 cells). It is filed as cell-based. As to conditions: compound concentration showing a transcription activity of 5% (0.1 nmol/L DHT = 100%, assay medium alone = 0%), 48 hours. The method, then: (§1) HeLa cells (purchased from Dai-Nippon Seiyaku K. K.) were cultured overnight in Dulbecco's Modified Eagle Medium containing no phenol red, but containing 3% charcoal-treated fetal bovine serum (hereafter referred to as DCC-FBS) (this medium is hereafter referred to as phenol-red-free DMEM). An MMTV-Luc-Hyg vector (reporter plasmid with mouse mammary tumor virus long terminal repeat, containing an androgen response element and a hygromycin resistance gene: a vector obtained by substituting a chloramphenicol acetyl transferease gene of a GM-CAT vector (A.T.C.C No. 67282) purchased from the A.T.C.C. with the firefly luciferase gene, and inserting a hygromycin resistance gene as a drug resistant gene), and pSG5-hAR-neo (human androgen receptor expression vector: a vector having an androgen receptor gene under the control of the SV40 promoter, and having a neomycin resistance gene inserted as a drug resistance gene) were transfected into the HeLa cells using an FuGENE™ 6 Transfection Reagent (obtained from Roche).
(§2) The clone cells thus obtained (11A11B2 cells) were maintained and propagated using DMEM containing 400 μg/mL neomycin, 200 μg/mL hygromycin and 10% FBS, and were propagated using phenol-red-free DMEM containing 10% DCC-FBS three to four days prior to the performance of an androgen receptor reporter gene assay.
The 11A11B2 cells were inoculated in a white clear-bottomed 96-well microplate (COSTAR) so that the cell concentration was 1.0×10^4/well, and were cultured overnight using phenol-red-free DMEM containing 3% DCC-FBS (hereafter referred to as the assay medium). Samples of the assay medium containing the compounds of the Examples and compounds of the Comparative Examples were added so that the final concentrations of the compounds of the Examples and compounds of the Comparative Examples were 1, 10, 100, 1,000 and 10,000 nmol/L), and the cells were cultured for 48 hours, after which the transcription activity value was measured. The transcription activity was measured using a Bright-Glo™ Luciferase Assay System (Promega).
The transcription activity rates of the compounds of the Examples were calculated from the transcription activity measured by the abovementioned method, with the transcription activity value obtained at 0.1 nmol/L DHT taken as 100%, and the transcription activity value in the case of the assay medium alone taken as 0%. The compound concentration showing a transcription activity of 5% (EC5 value) was calculated from a linear equation for two points on either side of 5%.
(A reporter such as luciferase makes a cellular process visible.)

Assay [2] concerns the target T1, human androgen receptor. As to the kind of experiment: Investigation of antagonist effect on androgen receptor (reporter gene assay, 11A11B2 cells, with DHT). It is filed as cell-based. The method, then:
as §1, §2
The 11A11B2 cells were inoculated in a white clear-bottomed 96-well microplate (COSTAR) so that the cell concentration was 1.0×10^4/well, and were cultured overnight. The assay medium containing DHT was added so that the final concentration of DHT was 0.1 nmol/L, and samples of the assay medium containing the compounds of the Examples or compounds of the Comparative Examples were added so that the final concentrations of the compounds of the Examples or compounds of the Comparative Examples were 1, 10, 100, 1,000 and 10,000 nmol/L, respectively. After culturing for 48, hours, the transcription activity values were measured. The transcription activity was measured using a Bright-Glo™ Luciferase Assay System (Promega).
The transcription activity rates of the compounds of the Examples were calculated from the transcription activity measured by the abovementioned method, with the transcription activity value obtained at 0.1 nmol/L DHT taken as 100%, and the transcription activity value in the case of the assay, medium alone taken as 0%.

[3] abbreviates: with 0.1 nmol/L DHT, transcription activity rate of Test Example 1 subtracted, 11A11B2 cells, 48 hours, read-out: IC50.

Compound `CN1C(=S)N(c2ccc(C#N)c(C(F)(F)F)c2)C(=O)C1(C)C` [Comparative Example 1, 4-(5-oxo-2-thioxo-3,4,4-trimethyl-1-imidazolidinyl)-2-trifluoromethylbenzonitrile, reference compound] showed an EC5 on human androgen receptor [1] of 8e-05 µM.
With `CC(=O)NCCN1C(=S)N(c2ccc(C#N)c(C(F)(F)F)c2)C(=O)C1(C)C` [Comparative Example 2, 4-[3′-(2″-N-acetylaminoethyl)-4′,4′-dimethyl-5′-oxo-2′-thioxo-1′-imidazolidinyl]-2-trifluoromethylbenzonitrile, reference compound], the EC5 on human androgen receptor [1] was determined as 3 µM.
What is called IC50 is the concentration needed to halve the response being measured. At human androgen receptor [1], `CCOC(=O)N1CCC(N2C(=S)N(c3ccc(C#N)c(Cl)c3)C(=O)C2(C)C)CC1` [Example 2, 4-[3-(1-ethoxycarbonylpiperidin-4-yl)-4,4-dimethyl-5-oxo-2-thioxoimidazolidin-1-yl]-2-chlorobenzonitrile] yielded an EC5 of 8 µM. On human androgen receptor [2], this compound gave an IC50 of 80 nM.
As to `CC(=O)N1CCC(N2C(=S)N(c3ccc(C#N)c(C(F)(F)F)c3)C(=O)C2(C)C)CC1` [Example 4, 4-[3-(1-acetylpiperidin-4-yl)-4,4-dimethyl-5-oxo-2-thioxoimidazolidin-1-yl]-2-trifluoromethylbenzonitrile], on human androgen receptor [1], the EC5 is over 10 µM. The IC50 on human androgen receptor [2] (setting [3]) was 300 nM.
`CCS(=O)(=O)N1CCC(N2C(=S)N(c3ccc(C#N)c(C(F)(F)F)c3)C(=O)C2(C)C)CC1` [Example 5, 4-[3-(1-ethanesulfonylpiperidin-4-yl)-4,4-dimethyl-5-oxo-2-thioxoimidazolidin-1-yl]-2-trifluoromethylbenzonitrile]: at human androgen receptor [1], the EC5 is over 10 µM. Moreover, at human androgen receptor [2], the IC50 amounted to 300 nM.
Compound `CC(=O)N1CCC(N2C(=S)N(c3ccc(C#N)c(Cl)c3)C(=O)C2(C)C)CC1` [Example 6, 4-[3-(1-acetylpiperidin-4-yl)-4,4-dimethyl-5-oxo-2-thioxoimidazolidin-1-yl]-2-chlorobenzonitrile] registered an EC5 on human androgen receptor [1] of over 10 µM. The same compound came in with an IC50 on human androgen receptor [2] of 200 nM.
At human androgen receptor [1], `CCC(=O)N1CCC(N2C(=S)N(c3ccc(C#N)c(Cl)c3)C(=O)C2(C)C)CC1` [Example 7, 4-[3-(1-propionylpiperidin-4-yl)-4,4-dimethyl-5-oxo-2-thioxoimidazolidin-1-yl]-2-chlorobenzonitrile] gave an EC5 of over 10 µM. It took 300 nM to reach half-maximal inhibition against human androgen receptor [2] (IC50).
In the case of `CCCS(=O)(=O)N1CCC(N2C(=S)N(c3ccc(C#N)c(Cl)c3)C(=O)C2(C)C)CC1` [Example 8, 4-[3-(1-propanesulfonylpiperidin-4-yl)-4,4-dimethyl-5-oxo-2-thioxoimidazolidin-1-yl]-2-chlorobenzonitrile], the EC5 at human androgen receptor [1] was over 10 µM. The same compound gave an IC50 at human androgen receptor [2] of 300 nM.
`CCS(=O)(=O)N1CCC(N2C(=S)N(c3ccc(C#N)c(Cl)c3)C(=O)C2(C)C)CC1` [Example 9, 4-[3-(1-ethanesulfonylpiperidin-4-yl)-4,4-dimethyl-5-oxo-2-thioxoimidazolidin-1-yl]-2-chlorobenzonitrile]: the EC5 at human androgen receptor [1] was over 10 µM. The compound further had an IC50 against human androgen receptor [2] of 300 nM.
Regarding `CCS(=O)(=O)N1CCC(N2C(=O)N(c3ccc(C#N)c(C(F)(F)F)c3C)C(=O)C2(C)C)CC1` [Example 10, 4-[3-(1-ethanesulfonylpiperidin-4-yl)-4,4-dimethyl-2,5-dioxoimidazolidin-1-yl]-2-trifluoromethyl-3-methylbenzonitrile], the EC5 on human androgen receptor [1] was over 10 µM. Also, the IC50 at human androgen receptor [2] (setting [3]) came to 600 nM.
Consider `CCNC(=O)N1CCC(N2C(=S)N(c3ccc(C#N)c(C(F)(F)F)c3)C(=O)C2(C)C)CC1` [Example 38, 4-[3-(1-ethylaminocarbonylpiperidin-4-yl)-4,4-dimethyl-5-oxo-2-thioxoimidazolidin-1-yl]-2-trifluoromethylbenzonitrile], for which the EC5 on human androgen receptor [1] was over 10 µM.
On the same count and under the same terms, with `CCNC(=O)N1CCC(N2C(=S)N(c3ccc(C#N)c(Cl)c3)C(=O)C2(C)C)CC1` [Example 40, 4-[3-(1-ethylaminocarbonylpiperidin-4-yl)-4,4-dimethyl-5-oxo-2-thioxoimidazolidin-1-yl]-2-chlorobenzonitrile] the figure was over 10 µM.
`CCNS(=O)(=O)N1CCC(N2C(=S)N(c3ccc(C#N)c(C(F)(F)F)c3)C(=O)C2(C)C)CC1` [Example 42, 4-[3-(1-ethylaminosulfonylpiperidin-4-yl)-4,4-dimethyl-5-oxo-2-thioxoimidazolidin-1-yl]-2-trifluoromethylbenzonitrile]: the IC50 on human androgen receptor [2] (setting [3]) worked out at 700 nM.
At human androgen receptor [1], `CC1(C)C(=O)N(c2ccc(C#N)c(C(F)(F)F)c2)C(=S)N1C1CCN(C(=O)OCC(O)CO)CC1` (centres unmarked) [Example 45, 4-[3-(4-cyano-3-trifluoromethylphenyl)-5,5-dimethyl-4-oxo-2-thioxoimidazolidin-1-yl]piperidine-1-carboxylic acid 2,3-dihydroxypropyl ester] came in with an EC5 of over 10 µM.
On to `COc1cc(N2C(=O)C(C)(C)N(c3ccc(Cl)c(NC(=O)OCC(O)CO)c3)C2=S)ccc1C#N` (centres unmarked) [Example 51, {2-chloro-5-[3-(4-cyano-3-methoxyphenyl)-5,5-dimethyl-4-oxo-2-thioxoimidazolidin-1-yl]phenyl}-carbamic acid 2,3-dihydroxypropyl ester], for which the EC5 on human androgen receptor [1] was over 10 µM.
For the compound `CN(C)CCOC(=O)Nc1cc(N2C(=S)N(c3ccc(C#N)c(Cl)c3)C(=O)C2(C)C)ccc1Cl` [Example 53, {2-chloro-5-[3-(4-cyano-3-chlorophenyl)-5,5-dimethyl-4-oxo-2-thioxoimidazolidin-1-yl]phenyl}-carbamic acid 2-dimethylaminoethyl ester], on human androgen receptor [1], the EC5 was over 10 µM.
Take `CC1(C)C(=O)N(c2ccc(C#N)c(Cl)c2)C(=S)N1c1ccc2sc(NC(=O)NCC(O)CO)nc2c1` (centres unmarked) [Example 62, 1-{5-[3-(3-chloro-4-cyanophenyl)-5,5-dimethyl-4-oxo-2-thioxoimidazolidin-1-yl]benzothiazol-2-yl}-3-(2,3-dihydroxypropyl)urea]: the EC5 on human androgen receptor [1] is over 10 µM.
On to `CC1(C)C(=O)N(c2ccc(C#N)c(C(F)(F)F)c2)C(=S)N1c1ccc(Cl)c(NC(=O)CCC(N)=O)c1` [Example 67, N-{2-chloro-5-[3-(4-cyano-3-trifluoromethylphenyl)-5,5-dimethyl-4-oxo-2-thioxoimidazolidin-1-yl]phenyl}-succinamide], for which the EC5 at human androgen receptor [1] was over 10 µM.
